# Key:
# [1] = tested on: MiaPaca-2 cells (pancreatic cancer); assay: Proliferation test method 1 (2D, MTT), MiaPaca-2; type: cell-based; settings: Homo sapiens, MIA PaCa-2, 2D, 5-7 days, read-out: IC50/nM proliferation inhibitory activity on MiaPaca-2 cells
# Protocol: Test method 1 (2D):NCI-H358 (lung cancer) and MiaPaca-2 cells (pancreatic cancer) cells (100 µL/well, 20,000 cells/mL) were inoculated in 96-well culture plates supplemented with 10% fetal bovine serum and 1% penicillin/streptomycin sulfate, respectively.Using 0.5% dimethyl sulfoxide as a blank control, cells were treated with a solution of the compound to be tested at a starting concentration of 10 µM, tripled diluted testing solution of the compound in eight gradients were used to treat cells, and then incubated in a 5% CO2 incubator for a certain period of time (5-7 days).At the end of incubation, 10 µL of MTT stock solution (5 mg/mL) was added to each well.The culture plates were incubated at 37° C. for 4 h and then the medium was removed.Dimethyl sulfoxide (100 µL) was added to each well and then shaken sufficiently. The absorbance of the product formazanwas measured at 570 nm on the Thermo Scientific Varioskan Flash multimode reader.IC50 values were obtained by fitting dose-response data into a three-parameter nonlinear regression model using GraphPad Prism 6.0 software.
# NCI-H358 cells = assay: Proliferation test method 2 (3D, Cell Titer Glo 3D), NCI-H358; type: cell-based; settings: Homo sapiens, NCI-H358, 96 h, read-out: IC50 cell proliferation inhibitory activity against NCI-H358
# Protocol: (§1) Test method 2 (3D): The tumor cells in the logarithmic growth phase were diluted with culture solution to a certain concentration and inoculated on the 96-well plate on the ultra-low attachment surface, and the culture medium was 80 µL/well. Cells were incubated overnight at 37° C. in a humidity chamber. On the second day, a series of diluted test compounds (10 concentrations, 3 times dilution) were added to the plate, 20 µL/well, incubated in an incubator for 96h.The plates are removed and placed at room temperature and incubated with an equal volume of Cell Titer Glo®3D reagent for 1 h. The signal is detected by the En Vision™ plate reader. […] A four-parameter nonlinear regression curve was fitted to the percent inhibition for each concentration of the compound and the IC50 was calculated.
# MiaPaca-2 cells = assay: Proliferation test method 2 (3D, Cell Titer Glo 3D), MiaPaca-2; type: cell-based; settings: Homo sapiens, MIA PaCa-2, 96 h, read-out: IC50 cell proliferation inhibitory activity against MiaPaca-2
# Protocol: as §1
# [2] = tested on: transplanted tumor of MiaPaca-2, NCI-H358 tumor cells; assay: Growth inhibition of transplanted tumor in nude mice; type: in vivo; settings: 10 mg/kg orally, after two weeks of administration
# Protocol: The tumor tissues in the peak growth period were cut into 1.5 mm^3 and inoculated into the right axillary subcutis of nude mice under aseptic conditions. The subcutaneous transplanted tumors of nude mice were measured by vernier calipers for the diameter of the transplanted tumors, and the animals were randomly grouped when the average volume of the tumors reached about 130 mm^3.The example compound (injection water containing 1% Tween 80 was prepared to the desired concentration and then left to be used) was administered orally at the given dose daily for three weeks, and the solvent control group was given an equal amount of solvent. The transplanted tumor diameter was measured twice a week throughout the experiment, and the mice were weighed at the same time.The tumor volume (TV) was calculated by the formula: TV = ½×a×b^2, where a and b are the length and width, respectively.
compound,measurement,setting,value
"C=CC(=O)N1C[C@@H]2C(=O)N(C)c3cnc4c(F)c(-c5ccc(F)c6sc(N)nc56)c(Cl)cc4c3N2C[C@H]1C (single isomer, unassigned) [Example 17-1]",IC50,[1],24.8 nM
C=CC(=O)N1CCN(c2c(C#N)cnc3c(F)c(-c4ccc(F)c5sc(N)nc45)c(Cl)cc23)CC1 [Example 8],IC50,NCI-H358 cells,< 0.2 µM
same,IC50,MiaPaca-2 cells,< 0.2 µM
same,tumor regression,[2],tumor regression was achieved
"C=CC(=O)N1CCN(c2nc(OC[C@@H]3CCCN3C)nc3c(F)c(-c4ccc(F)c5sc(N)nc45)c(Cl)cc23)C[C@H]1C [Example 11, 1-((2R)-4-(7-(2-Amino-7-Fluorobenzo [d] Thiazol-4-yl) -6-Chloro-8-Fluoro-2-(((S)-1-Methylpyrrolidin-2-yl) Methoxy) Quinazolin-4-yl)-2-Methylpiperazin-1-yl) Prop-2-En-1-One]",IC50,NCI-H358 cells,< 0.2 µM
same,IC50,MiaPaca-2 cells,< 0.2 µM

# — patent US20230174526A1, “BENZOTHIAZOLYL BIARYL COMPOUND, AND PREPARATION METHOD AND USE” (SHANGHAI RINGENE BIOPHARMA CO., LTD., priority 2020, published 2023)
